Source: US10538516B2, “Oxadiazole derivative and pharmaceutical containing same” (National Center for Geriatrics and Gerontology, priority 2015, dated 2020)
Where two headings read alike, the source gives them in different places.

Biological target: T1, GAβ-dependent amyloid fibril formation (Human Aβ1-40 + GM1-containing liposome) (Homo sapiens, UniProt P05067)
T1 construct: Human Aβ1-40 (cat. #4307-v, prepared by Peptide Institute); purchased Peptide Institute 4307-v
Test: Thioflavin T (ThT) assay of GAβ-dependent amyloid fibril formation (Aβ1-40 with GM1-containing liposome)
Type: biochemical
Method in brief: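 Human Aβ1-40 (75 μM stock) pre-incubated 10 min at room temperature with compound (75 or 15 μM solution), then GM1-containing cholesterol/sphingomyelin liposome added and incubated 37° C, 18 hours. Fibrils quantified by ThT fluorescence (ex 430/em 490 nm, pH 8.5 glycine buffer); inhibition as ratio to compound-free control.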

[1] = inhibition rate against amyloid fibril formation, final concentration of the compound 25 μM, read-out: Inhibitory activity ABC evaluation
[2] = @25 μM, read-out: ThT Inhibitory activity (% inhibition)

T1 sequence (P05067 672-711 limits assumed): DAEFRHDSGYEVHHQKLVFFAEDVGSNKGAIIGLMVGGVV

| inhibition at 25 µM [1] [%] | inhibition at 25 µM [2] [%] | SMILES |
| --- | --- | --- |
| 40 to 80 | – | O=C(N[C@@H](CO)c1nc(-c2ccc(CF)cc2)no1)c1ccccc1 [Compound 162, N-[(1S)-1-{3-[4-(fluoromethyl)phenyl]-1,2,4-oxadiazol-5-yl}-2-hydroxyethyl] benzamide] |
| 40 to 80 | – | O=C(N[C@@H](CO)c1nc(-c2ccc(Br)cc2)no1)c1ccc(F)cc1 [Compound 163, N-[(1S)-1-[3-(4-bromophenyl)-1,2,4-oxadiazol-5-yl]-2-hydroxyethyl]-4-fluorobenzamide] |
| > 80 | – | O=C(N[C@@H](CO)c1nc(-c2ccc(C(=O)C(F)(F)F)cc2)no1)c1ccc(F)cc1 [Compound 164, 4-fluoro-N-[(1S)-2-hydroxy-1-{3-[4-(2,2,2-trifluoroacetyl)phenyl]-1,2,4-oxadiazol-5-yl}ethyl] benzamide] |
| > 80 | – | O=C(N[C@@H](CO)c1nc(-c2ccc(C(=O)C(F)(F)F)cc2)no1)c1ccccc1 [Compound 165, N-[(1S)-2-hydroxy-1-{3-[4-(2,2,2-trifluoroacetyl)phenyl]-1,2,4-oxadiazol-5-yl}ethyl] benzamide] |
| 40 to 80 | – | O=C(N[C@@H](CO)c1nc(-c2ccc(C(F)F)cc2)no1)c1ccc(F)cc1 [Compound 166, N-[(1S)-1-{3-[4-(difluoromethyl)phenyl]-1,2,4-oxadiazol-5-yl}-2-hydroxyethyl]-4-fluorobenzamide] |
| > 80 | 98 | O=C(N[C@@H](CO)c1nc(-c2ccc(C(F)F)cc2)no1)c1ccc(Cl)cc1 [Compound 167] |
| > 80 | – | O=C(N[C@@H](CO)c1nc(-c2ccc(C(F)F)cc2)no1)c1ccccc1 [Compound 168, N-[(1S)-1-{3-[4-(difluoromethyl)phenyl]-1,2,4-oxadiazol-5-yl}-2-hydroxyethyl] benzamide] |
| 40 to 80 | – | CCOCCOc1ccc(C(=O)N[C@@H](CO)c2nc(-c3ccc(OC(F)(F)F)cc3)no2)cc1 [Compound 169, 4-(2-ethoxyethoxy)-N-[(1S)-2-hydroxy-1-{3-[4-(trifluoromethoxy)phenyl]-1,2,4-oxadiazol-5-yl}ethyl] benzamide] |
| 40 to 80 | – | CCOCCOc1ccc(C(=O)N[C@@H](CO)c2nc(-c3ccc(C(F)(F)F)cc3)no2)cc1 [Compound 170] |
| < 40 | – | CCN(CC)CCOc1ccc(C(=O)N[C@@H](CO)c2nc(-c3ccc(OC(F)(F)F)cc3)no2)cc1 [Compound 171, 4-[2-(diethylamino)ethoxy]-N-[(1S)-2-hydroxy-1-{3-[4-(trifluoromethoxy)phenyl]-1,2,4-oxadiazol-5-yl}ethyl] benzamide] |
| > 80 | 91 | O=C(N[C@@H](CO)c1nc(-c2ccc(F)cc2)no1)c1ccc(F)cc1 [Compound 172, 4-fluoro-N-[(1S)-1-[3-(4-fluorophenyl)-1,2,4-oxadiazol-5-yl]-2-hydroxyethyl] benzamide] |
| < 40 | – | O=C(N[C@@H](CO)c1nc(-c2cnc3ccccc3c2)no1)c1ccc(F)cc1 [Compound 173, 4-fluoro-N-[(1S)-2-hydroxy-1-[3-(quinolin-3-yl)-1,2,4-oxadiazol-5-yl]ethyl] benzamide] |
| < 40 | – | O=C(Nc1nc(-c2ccc(C(F)(F)F)cc2)no1)c1ccccc1 [Compound 174, N-{3-[4-(trifluoromethyl)phenyl]-1,2,4-oxadiazol-5-yl} benzamide] |
| > 80 | – | O=C(N[C@@H](CO)c1nc(-c2ccc3[nH]ccc3c2)no1)c1ccc(F)cc1 [Compound 175, 4-fluoro-N-[(1S)-2-hydroxy-1-[3-(1H-indol-5-yl)-1,2,4-oxadiazol-5-yl]ethyl] benzamide] |
| > 80 | – | O=C(N[C@@H](CO)c1nc(-c2cccc(C(F)(F)F)c2)no1)c1ccc(F)cc1 [Compound 176, 4-fluoro-N-[(1S)-2-hydroxy-1-{3-[3-(trifluoromethyl)phenyl]-1,2,4-oxadiazol-5-yl}ethyl] benzamide] |
| > 80 | – | O=C(N[C@@H](CO)c1nc(-c2cccc(C(F)(F)F)c2)no1)c1ccccc1 [Compound 177, N-[(1S)-2-hydroxy-1-{3-[3-(trifluoromethyl)phenyl]-1,2,4-oxadiazol-5-yl}ethyl] benzamide] |
| 40 to 80 | 61 | O=C(N[C@@H](CO)c1nc(-c2cccs2)no1)c1ccc(F)cc1 [Compound 178, 4-fluoro-N-[(1S)-2-hydroxy-1-[3-(thiophen-2-yl)-1,2,4-oxadiazol-5-yl]ethyl]benzamide] |
| 40 to 80 | – | O=C(N[C@@H](CO)c1nc(-c2ccc(-n3cccn3)cc2)no1)c1ccc(F)cc1 [Compound 179, 4-fluoro-N-[(1S)-2-hydroxy-1-{3-[4-(1H-pyrazol-1-yl)phenyl]-1,2,4-oxadiazol-5-yl}ethyl]benzamide] |

| inhibition at 25 µM [1] [%] | inhibition at 25 µM [2] [%] | SMILES |
| --- | --- | --- |
| < 40 | – | O=C(N[C@@H](CO)c1nc(-c2ccc(-n3cccn3)cc2)no1)c1ccccc1 [Compound 180] |
| 40 to 80 | 73 | O=C(N[C@@H](CO)c1nc(-c2ccccc2C(F)(F)F)no1)c1ccc(F)cc1 [Compound 181, 4-fluoro-N-[(1S)-2-hydroxy-1-{3-[2-(trifluoromethyl)phenyl]-1,2,4-oxadiazol-5-yl}ethyl]benzamide] |
| 40 to 80 | 64 | O=C(NC(CO)c1nc(-c2ccc(C(F)(F)F)cc2)no1)c1cc2ccccc2[nH]1 (stereo not drawn) [Compound 182, N-(2-hydroxy-1-{3-[4-(trifluoromethyl)phenyl]-1,2,4-oxadiazol-5-yl}ethyl)-1H-indole-2-carboxamide] |
| > 80 | – | O=C(NC(CO)c1nc(-c2ccc(C(F)(F)F)cc2)no1)c1ccc2[nH]ccc2c1 (stereo not drawn) [Compound 183, N-(2-hydroxy-1-{3-[4-(trifluoromethyl)phenyl]-1,2,4-oxadiazol-5-yl}ethyl)-1H-indole-5-carboxamide] |
| 40 to 80 | – | O=C(NC(CO)c1nc(-c2ccc(C(F)(F)F)cc2)no1)c1cccc2cc[nH]c12 (stereo not drawn) [Compound 184, N-(2-hydroxy-1-{3-[4-(trifluoromethyl)phenyl]-1,2,4-oxadiazol-5-yl}ethyl)-1H-indole-7-carboxamide] |
| 40 to 80 | – | O=C(Cc1c[nH]c2ccccc12)NC(CO)c1nc(-c2ccc(C(F)(F)F)cc2)no1 (stereo not drawn) [Compound 185, N-(2-hydroxy-1-{3-[4-(trifluoromethyl)phenyl]-1,2,4-oxadiazol-5-yl}ethyl)-2-(1H-indol-3-yl)acetamide] |
| 40 to 80 | – | O=C(NC(CO)c1nc(-c2ccc(C(F)(F)F)cc2)no1)c1n[nH]c2ccccc12 (stereo not drawn) [Compound 186, N-(2-hydroxy-1-{3-[4-(trifluoromethyl)phenyl]-1,2,4-oxadiazol-5-yl}ethyl)-1H-indazole-3-carboxamide] |
| 40 to 80 | – | O=C(Cc1ccc(F)cc1)NC(CO)c1nc(-c2ccc(C(F)(F)F)cc2)no1 (stereo not drawn) [Compound 187, 2-(4-fluorophenyl)-N-(2-hydroxy-1-{3-[4-(trifluoromethyl)phenyl]-1,2,4-oxadiazol-5-yl}ethyl)acetamide] |
| > 80 | – | O=C(NC(CO)c1nc(-c2ccc(C(F)(F)F)cc2)no1)c1ccc(C(F)(F)F)cc1 (stereo not drawn) [Compound 188, N-(2-hydroxy-1-{3-[4-(trifluoromethyl)phenyl]-1,2,4-oxadiazol-5-yl}ethyl)-4-(trifluoromethyl) benzamide] |
| 40 to 80 | – | O=C(N[C@@H](CO)c1nc(-c2ccccc2C(F)(F)F)no1)c1ccccc1 [Compound 189, N-[(1S)-2-hydroxy-1-{3-[2-(trifluoromethyl)phenyl]-1,2,4-oxadiazol-5-yl}ethyl]benzamide] |
| 40 to 80 | 67 | O=C(N[C@@H](CO)c1nc(-c2ccc(C3(F)COC3)cc2)no1)c1ccc(F)cc1 [Compound 190, 4-fluoro-N-[(1S)-1-{3-[4-(3-fluorooxetan-3-yl)phenyl]-1,2,4-oxadiazol-5-yl}-2-hydroxyethyl] benzamide] |
| 40 to 80 | 73 | O=C(/C=C/c1cc(Cl)cc(Cl)c1)NC(CO)c1nc(-c2ccc(C(F)(F)F)cc2)no1 (stereo not drawn) [Compound 191, (2E)-3-(3,5-dichlorophenyl)-N-(2-hydroxy-1-{3-[4-(trifluoromethyl)phenyl]-1,2,4-oxadiazol-5-yl}ethyl)prop-2-enamide] |
| > 80 | – | O=C(N[C@@H](CO)c1nc(-c2ccc(C(F)(F)F)cc2)no1)C1CNc2ccccc2O1 (stereo partly drawn) [Compound 192, N-[(1S)-2-hydroxy-1-{3-[4-(trifluoromethyl)phenyl]-1,2,4-oxadiazol-5-yl}ethyl]-3,4-dihydro-2H-1,4-benzoxazine-2-carboxamide] |
| 40 to 80 | – | O=C(N[C@@H](CO)c1nc(-c2ccc(C(F)(F)F)cc2)no1)C1CC(=O)N(c2ccc(Cl)cc2)C1 (stereo partly drawn) [Compound 193, 1-(4-chlorophenyl)-N-[(1S)-2-hydroxy-1-{3-[4-(trifluoromethyl)phenyl]-1,2,4-oxadiazol-5-yl}ethyl]-5-oxopyrrolidine-3-carboxamide] |
| 40 to 80 | – | O=C(N[C@@H](CO)c1nc(-c2ccc3[nH]cc(F)c3c2)no1)c1ccc(F)cc1 [Compound 194, 4-fluoro-N-[(1S)-1-[3-(3-fluoro-1H-indol-5-yl)-1,2,4-oxadiazol-5-yl]-2-hydroxyethyl] benzamide] |
| > 80 | – | O=C(N[C@@H](CO)c1nc(-c2ccc(C(F)(F)F)cc2)no1)c1ccc(F)c(Cl)c1 [Compound 195, 3-chloro-4-fluoro-N-[(1S)-2-hydroxy-1-{3-[4-(trifluoromethyl)phenyl]-1,2,4-oxadiazol-5-yl}ethyl]benzamide] |
| > 80 | – | O=C(N[C@@H](CO)c1nc(-c2ccc(C(F)(F)F)cc2)no1)c1cc(F)cc(F)c1 [Compound 196, 3,5-difluoro-N-[(1S)-2-hydroxy-1-{3-[4-(trifluoromethyl)phenyl]-1,2,4-oxadiazol-5-yl}ethyl]benzamide] |
